In patent US20240286998A1, “F[…], ANALOGUES THEREOF, AND METHODS USING SAME” (Saint Joseph's University, priority 2021, published 2024):

Target: 5-HT2A (Homo sapiens (Human), UniProt P28223)
Test: 5-HT2A Gq-mediated calcium flux functional assay
Type: cell-based
Settings: not given

Point of comparison: `C#CCN(CCC)CCc1c[nH]c2c(F)cccc12` [compound 180, N-(2-(7-fluoro-1H-indol-3-yl)ethyl)-N-propylprop-2-yn-1-amine], EC50 79.4 nM. Against it:
- CCN(C)CCc1c[nH]c2cc(F)c(Cl)cc12 [compound 179, 2-(5-chloro-6-fluoro-1H-indol-3-yl)-N-ethyl-N-methylethan-1-amine] — 7.4-fold lower, 10.7 nM

Same assay, conditions: IA = Inactive; N=1-3

Point of comparison: `CN(CCc1c[nH]c2ccc(F)cc12)C1CSC1` [compound 20, N-(2-(5-fluoro-1H-indol-3-yl)ethyl)-N-methylthietan-3-amine], “5-HT2A-Ca2+ FLUX Emax (% 5-HT)” value 61.8 ± 3.2 % 5-HT. Against it:
- CN(C)CCc1c[nH]c2ccc(F)cc12 [Compound 5-F-DMT] — higher, 96.6 ± 1.0 % 5-HT
- CCN(C)CCc1c[nH]c2cc(F)c(Cl)cc12 [compound 179, 2-(5-chloro-6-fluoro-1H-indol-3-yl)-N-ethyl-N-methylethan-1-amine] — higher, 79.3 ± 0.7 % 5-HT
- C#CCN(CCC)CCc1c[nH]c2c(F)cccc12 [compound 180, N-(2-(7-fluoro-1H-indol-3-yl)ethyl)-N-propylprop-2-yn-1-amine] — higher, 80.7 ± 1.6 % 5-HT
- CCCN(CC#N)CCc1c[nH]c2c(F)cccc12 [compound 181, 2-((2-(7-fluoro-1H-indol-3-yl)ethyl)(propyl)amino)acetonitrile] — higher, 68.7 ± 1.7 % 5-HT

In the case of `CN(C)CCc1c[nH]c2ccc(F)cc12` [Compound 5-F-DMT], the “5-HT2A-Ca2+ FLUX pEC50” value is reported as 8.70 ± 0.03.

Same assay, conditions: IA = Inactive; N=1-3; read-out: 5-HT2A-Ca2+ FLUX pEC50 (converted)

Point of comparison: `CN(CCc1c[nH]c2ccc(F)cc12)C1CSC1` [compound 20, N-(2-(5-fluoro-1H-indol-3-yl)ethyl)-N-methylthietan-3-amine], EC50 28.8 nM. Against it:
- CCCN(CC#N)CCc1c[nH]c2c(F)cccc12 [compound 181, 2-((2-(7-fluoro-1H-indol-3-yl)ethyl)(propyl)amino)acetonitrile] — 2-fold higher, 58.9 nM

Target: 5-HT2C (Homo sapiens (Human), UniProt P28335)
Test: 5-HT2C Gq-mediated calcium flux functional assay
Type: cell-based
Settings: not given

Chain of 5-HT2C (P28335 whole entry, looked up): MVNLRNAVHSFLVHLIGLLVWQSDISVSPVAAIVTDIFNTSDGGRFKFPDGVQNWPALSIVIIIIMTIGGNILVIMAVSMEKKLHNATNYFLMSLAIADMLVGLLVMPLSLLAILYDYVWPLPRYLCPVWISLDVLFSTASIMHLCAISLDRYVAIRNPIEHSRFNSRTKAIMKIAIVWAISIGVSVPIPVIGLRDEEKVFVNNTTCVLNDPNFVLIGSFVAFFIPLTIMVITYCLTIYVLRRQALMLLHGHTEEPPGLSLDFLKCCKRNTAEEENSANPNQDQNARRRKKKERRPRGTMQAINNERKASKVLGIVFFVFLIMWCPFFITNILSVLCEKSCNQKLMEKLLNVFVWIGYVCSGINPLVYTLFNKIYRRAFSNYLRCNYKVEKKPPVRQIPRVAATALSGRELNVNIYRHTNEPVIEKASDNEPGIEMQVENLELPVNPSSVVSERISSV

Point of comparison: `CCN(C)CCc1c[nH]c2cc(F)c(Cl)cc12` [compound 179, 2-(5-chloro-6-fluoro-1H-indol-3-yl)-N-ethyl-N-methylethan-1-amine], EC50 22.9 nM. Against it:
- C#CCN(CCC)CCc1c[nH]c2c(F)cccc12 [compound 180, N-(2-(7-fluoro-1H-indol-3-yl)ethyl)-N-propylprop-2-yn-1-amine] — 28-fold higher, 631 nM

Same assay, conditions: IA = Inactive; N=1-3

Point of comparison: `C#CCN(CCC)CCc1c[nH]c2c(F)cccc12` [compound 180, N-(2-(7-fluoro-1H-indol-3-yl)ethyl)-N-propylprop-2-yn-1-amine], “5-HT2C-Ca2+ FLUX Emax (% 5-HT)” value 56.5 ± 2.1 % 5-HT. Against it:
- CN(C)CCc1c[nH]c2ccc(F)cc12 [Compound 5-F-DMT] — higher, 100.3 ± 1.8 % 5-HT
- CN(CCc1c[nH]c2ccc(F)cc12)C1CSC1 [compound 20, N-(2-(5-fluoro-1H-indol-3-yl)ethyl)-N-methylthietan-3-amine] — within error, 55.0 ± 2.8 % 5-HT
- CCN(C)CCc1c[nH]c2cc(F)c(Cl)cc12 [compound 179, 2-(5-chloro-6-fluoro-1H-indol-3-yl)-N-ethyl-N-methylethan-1-amine] — higher, 95.5 ± 1.0 % 5-HT

For `CN(C)CCc1c[nH]c2ccc(F)cc12` [Compound 5-F-DMT], the “5-HT2C-Ca2+ FLUX pEC50” value was 8.8 ± 0.06.

Same assay, conditions: IA = Inactive; N=1-3; read-out: 5-HT2C-Ca2+ FLUX pEC50 (converted)

For `CN(CCc1c[nH]c2ccc(F)cc12)C1CSC1` [compound 20, N-(2-(5-fluoro-1H-indol-3-yl)ethyl)-N-methylthietan-3-amine], the EC50 was 468 nM.

Target: Serotonin 5-HT2A (human) (Homo sapiens (Human), UniProt P28223)
Test: 5-HT2A receptor binding, [3H]-ketanserin competition in membrane fractions
Settings: 1 nM [3H]-ketanserin, Cheng-Prusoff, N=1-3

Point of comparison: `CCCN(CC#N)CCc1c[nH]c2c(F)cccc12` [compound 181, 2-((2-(7-fluoro-1H-indol-3-yl)ethyl)(propyl)amino)acetonitrile], “5-HT2A pKi ± SEM” value 5.75. Against it:
- CN(C)CCc1c[nH]c2ccc(F)cc12 [Compound 5-F-DMT] — higher, 6.65
- CCN(C)CCc1c[nH]c2c(F)cccc12 [Example 7, N-ethyl-2-(7-fluoro-1H-indol-3-yl)-N-methylethan-1-amine] — higher, 6.02
- C=CCN(CCc1c[nH]c2ccc(F)cc12)C1CCC1 [Example 14, N-allyl-N-(2-(5-fluoro-1H-indol-3-yl)ethyl)cyclobutanamine] — higher, 6.09
- CC(C)N(CC#N)CCc1c[nH]c2ccc(F)cc12 [compound 17, 2-((2-(5-fluoro-1H-indol-3-yl)ethyl)(isopropyl)amino)acetonitrile] — lower, 5.41
- CCN(C)CCc1c[nH]c2cc(F)c(Cl)cc12 [compound 179, 2-(5-chloro-6-fluoro-1H-indol-3-yl)-N-ethyl-N-methylethan-1-amine] — higher, 6.93
- C#CCN(CCC)CCc1c[nH]c2c(F)cccc12 [compound 180, N-(2-(7-fluoro-1H-indol-3-yl)ethyl)-N-propylprop-2-yn-1-amine] — the same, 5.75

Target: 5-HT1A (Homo sapiens (Human), UniProt P08908)
Test: 5-HT1A Gi/o-mediated cAMP inhibition, GloSensor assay
Type: cell-based
Settings: not given

`CN(CCc1c[nH]c2ccc(F)cc12)C1CSC1` [compound 20, N-(2-(5-fluoro-1H-indol-3-yl)ethyl)-N-methylthietan-3-amine] showed an EC50 of 794 nM.

Same assay, conditions: cAMP inhibition, 0.2 μM isoproterenol; IA = Inactive

Point of comparison: `CN(C)CCc1c[nH]c2ccc(F)cc12` [Compound 5-F-DMT], “5-HT1A-cAMP Emax (% 5-HT)” value 94.2 ± 3.4 % 5-HT. Against it:
- CN(CCc1c[nH]c2ccc(F)cc12)C1CSC1 [compound 20, N-(2-(5-fluoro-1H-indol-3-yl)ethyl)-N-methylthietan-3-amine] — within error, 93.1 ± 2.5 % 5-HT

`CN(C)CCc1c[nH]c2ccc(F)cc12` [Compound 5-F-DMT] was tested, and the “5-HT1A-cAMP pEC50” value was 6.69 ± 0.08.

Target: 5-HT2B (Homo sapiens (Human), UniProt P41595)
Test: 5-HT2B Gq-mediated calcium flux functional assay
Type: cell-based
Settings: not given

Chain of 5-HT2B (P41595 whole entry): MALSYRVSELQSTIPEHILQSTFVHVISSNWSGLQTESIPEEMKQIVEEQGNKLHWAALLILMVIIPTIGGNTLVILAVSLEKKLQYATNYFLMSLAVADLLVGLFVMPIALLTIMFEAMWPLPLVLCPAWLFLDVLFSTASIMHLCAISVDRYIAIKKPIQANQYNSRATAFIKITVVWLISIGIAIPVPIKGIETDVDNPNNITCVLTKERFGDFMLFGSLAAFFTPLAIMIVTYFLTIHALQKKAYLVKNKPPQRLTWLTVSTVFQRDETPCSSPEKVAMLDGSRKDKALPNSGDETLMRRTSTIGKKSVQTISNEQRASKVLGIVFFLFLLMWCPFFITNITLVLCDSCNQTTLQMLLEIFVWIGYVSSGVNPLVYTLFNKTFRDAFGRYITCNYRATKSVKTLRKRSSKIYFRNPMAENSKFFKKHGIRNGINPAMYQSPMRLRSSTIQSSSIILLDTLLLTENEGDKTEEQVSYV

Point of comparison: `CCN(C)CCc1c[nH]c2cc(F)c(Cl)cc12` [compound 179, 2-(5-chloro-6-fluoro-1H-indol-3-yl)-N-ethyl-N-methylethan-1-amine], EC50 10.7 nM. Against it:
- C#CCN(CCC)CCc1c[nH]c2c(F)cccc12 [compound 180, N-(2-(7-fluoro-1H-indol-3-yl)ethyl)-N-propylprop-2-yn-1-amine] — 3.6-fold higher, 38 nM

Same assay, conditions: IA = Inactive; N=1-3

Point of comparison: `CCN(C)CCc1c[nH]c2cc(F)c(Cl)cc12` [compound 179, 2-(5-chloro-6-fluoro-1H-indol-3-yl)-N-ethyl-N-methylethan-1-amine], “5-HT2B-Ca2+ FLUX Emax (% 5-HT)” value 67.8 ± 0.6 % 5-HT. Against it:
- CN(C)CCc1c[nH]c2ccc(F)cc12 [Compound 5-F-DMT] — lower, 61.1 ± 2.0 % 5-HT
- CN(CCc1c[nH]c2ccc(F)cc12)C1CSC1 [compound 20, N-(2-(5-fluoro-1H-indol-3-yl)ethyl)-N-methylthietan-3-amine] — lower, 17.3 ± 1.1 % 5-HT
- C#CCN(CCC)CCc1c[nH]c2c(F)cccc12 [compound 180, N-(2-(7-fluoro-1H-indol-3-yl)ethyl)-N-propylprop-2-yn-1-amine] — higher, 92.7 ± 1.2 % 5-HT
- CCCN(CC#N)CCc1c[nH]c2c(F)cccc12 [compound 181, 2-((2-(7-fluoro-1H-indol-3-yl)ethyl)(propyl)amino)acetonitrile] — lower, 36.8 ± 0.7 % 5-HT

With `CN(C)CCc1c[nH]c2ccc(F)cc12` [Compound 5-F-DMT] the “5-HT2B-Ca2+ FLUX pEC50” value was 8.70 ± 0.11.

Same assay, conditions: IA = Inactive; N=1-3; read-out: 5-HT2B-Ca2+ FLUX pEC50 (converted)

Point of comparison: `CN(CCc1c[nH]c2ccc(F)cc12)C1CSC1` [compound 20, N-(2-(5-fluoro-1H-indol-3-yl)ethyl)-N-methylthietan-3-amine], EC50 2.4 nM. Against it:
- CCCN(CC#N)CCc1c[nH]c2c(F)cccc12 [compound 181, 2-((2-(7-fluoro-1H-indol-3-yl)ethyl)(propyl)amino)acetonitrile] — 120-fold higher, 295 nM
